# Assay results: ChEMBL document CHEMBL5126538, “A score years' update in the synthesis and biological evaluation of medicinally important 2-pyridones” (Eur J Med Chem, 2022)
# Columns and labels:
# Human adenovirus 7 = assay: Antiviral activity against Human adenovirus 7 infected in human HEp-2 cells assessed as reduction in viral growth incubated for 0.5 hrs followed by cell infection measured after 1 hr by crystal violet staining based assay relative to control; type: functional; parameters: scale not given: the % may be the effect or the level left; conditions: time 1.5 hrs
# Hepatovirus A = assay: Antiviral activity against Hepatitis A virus HM175 infected in monkey FRhK-4 cells assessed as reduction in viral growth incubated for 0.5 hrs followed by cell infection measured after 1 hr by crystal violet staining based assay relative to control; type: functional; parameters: scale not given: the % may be the effect or the level left; conditions: time 1.5 hrs
# Coxsackievirus B4 = assay: Antiviral activity against Coxsackievirus B4 infected in African green monkey BGM cells assessed as reduction in viral growth incubated for 0.5 hrs followed by cell infection measured after 1 hr by crystal violet staining based assay relative to control; type: functional; parameters: scale not given: the % may be the effect or the level left; conditions: time 1.5 hrs
# Human alphaherpesvirus 1 = assay: Antiviral activity against […] type 1 infected in African green monkey Vero cells assessed as reduction in viral growth incubated for 0.5 hrs followed by cell infection measured after 1 hr by crystal violet staining based assay relative to control; type: functional; parameters: scale not given: the % may be the effect or the level left; conditions: time 1.5 hrs
# [1] = Inhibition of quorum sensing system in Pseudomonas aeruginosa assessed as reduction in LasI gene expression measured per well
# [2] = molecular target: Coagulation factor VII/tissue factor (Homo sapiens, UniProt P08709); assay: Inhibition of TF/VIIA complex (unknown origin); type: protein-complex assay
# HepG2 = assay: Cytotoxicity against human HepG2 cells assessed as cell growth inhibition incubated for 72 hrs by SRB assay; type: functional, cell-based; conditions: HepG2, 72 h
# [3] = Inhibition of HIV reverse transcriptase; parameters: species or system Human immunodeficiency virus
# Staphylococcus aureus = assay: Antibacterial activity against Staphylococcus aureus assessed as zone of inhibition incubated for 24 hrs by well diffusion assay; type: functional
# Escherichia coli = assay: Antibacterial activity against Escherichia coli assessed as zone of inhibition incubated for 24 hrs by well diffusion assay; type: functional
# Bacillus subtilis = assay: Antibacterial activity against Bacillus subtilis assessed as zone of inhibition incubated for 24 hrs by well diffusion assay; type: functional
# Aspergillus niger = assay: Antifungal activity against Aspergillus niger assessed as zone of inhibition incubated for 24 hrs by well diffusion assay; type: functional
# [4] = molecular target: Human immunodeficiency virus type 1 reverse transcriptase (Human immunodeficiency virus 1, UniProt Q72547); assay: Inhibition of HIV-1 reverse transcriptase using rC.dG as primer/template
# [5] = molecular target: Interleukin-6 (Homo sapiens) (UniProt P05231); assay: Inhibition of IL-6 (unknown origin) relative to control; conditions: concentration not given here
# Sequence of Interleukin-6 (Homo sapiens) (P05231 whole entry): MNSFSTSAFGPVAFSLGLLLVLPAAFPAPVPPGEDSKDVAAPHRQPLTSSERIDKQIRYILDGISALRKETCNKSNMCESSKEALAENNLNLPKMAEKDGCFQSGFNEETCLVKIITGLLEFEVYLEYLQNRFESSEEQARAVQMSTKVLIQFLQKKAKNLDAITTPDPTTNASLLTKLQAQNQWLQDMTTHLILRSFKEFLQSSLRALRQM
# Sequence of Coagulation factor VII/tissue factor (P08709 61-212 limits assumed): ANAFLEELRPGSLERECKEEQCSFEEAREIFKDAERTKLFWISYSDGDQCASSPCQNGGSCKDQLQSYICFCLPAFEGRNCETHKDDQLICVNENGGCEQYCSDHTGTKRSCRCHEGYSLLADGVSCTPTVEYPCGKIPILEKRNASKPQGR
# Sequence of Coagulation factor VII/tissue factor (P08709 213-466 limits assumed): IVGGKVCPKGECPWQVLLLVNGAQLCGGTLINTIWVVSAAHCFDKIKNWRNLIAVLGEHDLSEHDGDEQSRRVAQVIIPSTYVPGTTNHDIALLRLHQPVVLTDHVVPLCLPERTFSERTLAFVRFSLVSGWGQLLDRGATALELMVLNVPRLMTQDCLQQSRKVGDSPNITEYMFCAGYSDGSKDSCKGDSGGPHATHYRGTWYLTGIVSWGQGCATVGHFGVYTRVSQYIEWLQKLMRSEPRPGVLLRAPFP
# Sequence of Coagulation factor VII/tissue factor (P13726 33-295 partner limits assumed): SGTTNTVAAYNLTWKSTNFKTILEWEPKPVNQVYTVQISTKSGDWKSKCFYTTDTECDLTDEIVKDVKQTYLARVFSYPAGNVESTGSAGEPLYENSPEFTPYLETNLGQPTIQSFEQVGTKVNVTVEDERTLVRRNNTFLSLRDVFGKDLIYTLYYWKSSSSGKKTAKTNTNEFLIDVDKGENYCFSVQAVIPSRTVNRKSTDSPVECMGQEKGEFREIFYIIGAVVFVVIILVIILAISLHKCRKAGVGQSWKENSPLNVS
compound,measurement,setting,value
N#Cc1cc(-c2nc3ccccc3s2)c(=O)n(NS(=O)(=O)c2ccccc2)c1N,Activity,Human adenovirus 7,<=70%
same,Activity,Hepatovirus A,<=70%
same,Activity,Coxsackievirus B4,<=70%
same,Activity,Human alphaherpesvirus 1,<=70%
CCc1c(O)cc(C(C)C)[nH]c1=O,MIC,[1],6.35 µg
CC[C@@H](C)c1cc(O)c(C)c(=O)[nH]1,MIC,[1],6.35 µg
O=c1c(-c2nc3ccccc3s2)cc2c(n1NS(=O)(=O)c1ccc(Cl)cc1)CCCC2,Activity,Human adenovirus 7,<=70%
same,Activity,Hepatovirus A,<=70%
same,Activity,Coxsackievirus B4,<=70%
same,Activity,Human alphaherpesvirus 1,<=70%
CC(C)Nc1ccc(-c2cc(N)cc([N+](=O)[O-])c2)n(CC(=O)NCc2ccc(C(=N)N)cc2)c1=O,IC50,[2],52 nM
COC(=O)c1ccccc1-n1c(N)c(C#N)c(-c2ccc(N(C)C)cc2)cc1=O,IC50,HepG2,2410 nM
CCCc1cc(O)c(CC)c(=O)[nH]1,MIC,[1],6.35 µg
Cc1c(O)cc(CC(C)C)[nH]c1=O,MIC,[1],6.35 µg
CCc1cc(CCN2C(=O)c3ccccc3C2=O)c(O)nc1C,IC50,[3],6.2 nM
Cc1[nH]c(=O)c(C#N)c(-c2ccccc2Br)c1C(=O)Nc1ccccc1,diameter of the inhibition zone (DIZ),Staphylococcus aureus,4.25 mm
same,diameter of the inhibition zone (DIZ),Escherichia coli,3.75 mm
same,diameter of the inhibition zone (DIZ),Bacillus subtilis,3.5 mm
same,diameter of the inhibition zone (DIZ),Aspergillus niger,3 mm
CCc1cc(NCc2cc3ccccc3o2)c(O)nc1C,IC50,[4],0.33 nM
COC(=O)c1ccccc1-n1c(N)c(C(N)=O)c(-c2ccc(C)cc2)cc1=O,IC50,HepG2,1340 nM
CCc1cc(NCN2C(=O)c3ccccc3C2=O)c(O)nc1C,IC50,[3],0.058 nM
COc1ccc(-c2c(C(=O)Nc3ccc(O)cc3)c(N)[nH]c(=O)c2C#N)cc1,inhibition,[5],65.1%
Cc1ccc(S(=O)(=O)Nn2c3c(cc(-c4nc5ccccc5s4)c2=O)CCCC3)cc1,Activity,Human adenovirus 7,<=70%
same,Activity,Hepatovirus A,<=70%
same,Activity,Coxsackievirus B4,<=70%
same,Activity,Human alphaherpesvirus 1,<=70%
CC(C)Nc1ccc(-c2cc(C(=O)O)cc([N+](=O)[O-])c2)n(CC(=O)NCc2ccc(C(=N)N)cc2)c1=O,IC50,[2],118 nM
